Where two headings read alike, the source gives them in different places.

As usually defined, the EC50 is the concentration needed to bring the measured effect to its halfway point.

In the experiment the target is T1, Full-length glucokinase (beta cell isoform) (Homo sapiens, UniProt P35557).
T1 construct: Full-length glucokinase (beta cell isoform) was His-tagged at N-terminus; His tag (N); made in house; host or cells: E. coli BL21(DE3), pBCGK vector
T1 sequence (P35557 1-465): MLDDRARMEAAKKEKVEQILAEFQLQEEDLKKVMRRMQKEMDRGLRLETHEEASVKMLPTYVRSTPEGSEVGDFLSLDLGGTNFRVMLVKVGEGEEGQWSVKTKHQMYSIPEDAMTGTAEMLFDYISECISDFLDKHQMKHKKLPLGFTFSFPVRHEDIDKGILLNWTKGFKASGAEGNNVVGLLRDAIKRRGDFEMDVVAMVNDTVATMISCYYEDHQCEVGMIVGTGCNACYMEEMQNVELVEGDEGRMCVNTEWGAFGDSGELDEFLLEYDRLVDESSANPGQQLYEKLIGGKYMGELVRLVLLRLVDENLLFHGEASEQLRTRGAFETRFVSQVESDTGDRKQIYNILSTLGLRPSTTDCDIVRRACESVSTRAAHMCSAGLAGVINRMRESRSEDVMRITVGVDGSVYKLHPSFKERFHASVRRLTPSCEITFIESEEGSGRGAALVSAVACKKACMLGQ
Description: Glucokinase activation assay (PK/LDH-coupled, NADH depletion at 340 nm). The following applies: for Emax: % max activation = (Va/Vo−1)×100 from fit, pH 7.1, read-out: Maximum Activation (%). Type of experiment: biochemical. As to the method:
Full-length glucokinase (beta cell isoform) was His-tagged at N-terminus and purified by a Ni column followed by size exclusion chromatography. A 320 mL column was packed in house using Superdex75 (Amersham Pharmacia, Carlsbad, Calif.) preparation grade resin. Glucose was obtained from Calbiochem (San Diego, Calif.) and other reagents were purchased from Sigma-Aldrich (St. Louis, Mo.).
All assays were performed in a Corning 384-well plate using Spectramax PLUS spectrophotometer (Molecular Devices, Sunnyvale, Calif.) at room temperature. The final assay volume was 40 ∥L. The buffer conditions used in this assay were as follows: 50 mM HEPES, 5 mM glucose, 2.5 mM ATP, 3.5 mM MgCl2, 0.7 mM NADH, 2 mM dithiothreitol, 1 unit/mL pyruvate kinase/lactate dehydrogenase (PK/LDH), 0.2 mM phosphoenolpyruvate, and 25 mM KCl. The buffer pH was 7.1. The test compound in dimethylsulfoxide solution was added to the buffer and mixed by a plate shaker for 7.5 minutes. The final concentration of dimethylsulfoxide introduced into the assay was 0.25%.
Glucokinase was added to the buffer mixture to initiate the reaction in the presence and absence of compound. The reaction was monitored by absorbance at 340 nm due to the depletion of NADH. The initial reaction velocity was measured by the slope of a linear time course of 0-300 seconds. The percentage of maximum activation was calculated by the following equation: % Maximum Activation=(Va/Vo−1)×100; wherein each of Va and Vo is defined as the initial reaction velocity in the presence and absence of the tested compound, respectively.
The glucokinase activities were measured as a function of compound concentrations.

Setting [1] is: 5 mM glucose, 2.5 mM ATP, pH 7.1, room temperature, single value or range where N>1, read-out: EC50.
The mark [2] stands for this setting: 5 mM glucose, single value or range where N>1.

As to `CCS(=O)(=O)c1cn([C@@H](CC2CCCC2)C(=O)Nc2cnc(C)cn2)cn1` [Example 33, (S)-3-cyclopentyl-2-(4-(ethylsulfonyl)-1H-imidazol-1-yl)-N-(5-methylpyrazin-2-yl)propanamide], the concentration giving a half-maximal response (EC50) under setting [1] amounted to 16 µM. Besides, the Emax under setting [2] stood at 136%.

As to `CC(C)S(=O)(=O)c1cnn([C@@H](CC2CCCC2)C(=O)Nc2ccccn2)c1` [Example 16, (S)-3-cyclopentyl-2-(4-(isopropylsulfonyl)-1H-pyrazol-1-yl)-N-(pyridin-2-yl)propanamide], the EC50 under setting [1] was 1.9 µM. Also, the Emax under setting [2] was 48%.

Molecule `CCOP(=O)(Cc1ccc(NC(=O)[C@H](CC2CCCC2)n2cnc(C(F)(F)F)c2)nc1)OCC` [Example 58, (S)-diethyl(6-(3-cyclopentyl-2-(4-(trifluoromethyl)-1H-imidazol-1-yl)propanamido)pyridin-3-yl)methylphosphonate] registered a half-maximal effective concentration (EC50) of 3.4 µM. Besides, the Emax under setting [2] was 129%.

On to `CC(C)S(=O)(=O)c1cnn([C@@H](CC2CCCC2)C(=O)Nc2cnccn2)c1` [Example 2, (S)-3-cyclopentyl-2-(4-(isopropylsulfonyl)-1H-pyrazol-1-yl)-N-(pyrazin-2-yl)propanamide], for which, under setting [1], the concentration giving a half-maximal response (EC50) was in the range of 9 to 16.5 µM. For the same molecule, the Emax under setting [2] was in the range of 84 to 90%.

`Cc1ccc(NC(=O)[C@H](Cn2cccn2)n2cnc(C(F)(F)F)c2)nc1` [Example 83, (S)—N-(5-methylpyridin-2-yl)-3-(1H-pyrazol-1-yl)-2-(4-(trifluoromethyl)-1H-imidazol-1-yl)propenamide]: under setting [1], the EC50 is greater than 100 µM.

`Cc1ccc(NC(=O)[C@H](CC2CCOCC2)n2cnc(C(F)(F)F)c2)nc1` [Example 75, (S)—N-(5-methylpyridin-2-yl)-3-(tetrahydro-2H-pyran-4-yl)-2-(4-(trifluoromethyl)-1H-imidazol-1-yl)propanamide]: the half-maximal effective concentration (EC50) under setting [1] fell in the range of 0.8 to 2 µM. In addition, under setting [2], the Emax was in the range of 51 to 78%.

In the case of `O=C(O)Cn1ccc(NC(=O)[C@H](CC2CCCC2)n2cnc(C(F)(F)F)n2)n1` [Example 89, (S)-2-(3-(3-cyclopentyl-2-(3-(trifluoromethyl)-1H-1,2,4-triazol-1-yl)propanamido)-1H-pyrazol-1-yl)acetic acid], the EC50 under setting [1] was 45 µM. For the same molecule, the Emax under setting [2] is 183%.

Consider `Cc1ccc(NC(=O)[C@H](CC2CCCC2)n2cnc(C(F)(F)F)n2)nc1` [Example 85, (S)-3-cyclopentyl-N-(5-methylpyridin-2-yl)-2-(3-(trifluoromethyl)-1H-1,2,4-triazol-1-yl)propanamide], for which the EC50 under setting [1] lay in the range of 0.8 to 1 µM. In addition, the Emax under setting [2] was 125 to 147%.

Consider `Cn1ccc(NC(=O)[C@H](CC2CCCC2)n2cnc(S(C)(=O)=O)n2)n1` [Example 26, (S)-3-cyclopentyl-N-(1-methyl-1H-pyrazol-3-yl)-2-(3-(methylsulfonyl)-1H-1,2,4-triazol-1-yl)propanamide], for which the concentration giving a half-maximal response (EC50) under setting [1] was 33 µM. Under setting [2], the Emax stood at 89%.

With `Cn1ccc(NC(=O)[C@H](CC2CCCC2)n2cnc(C(F)(F)F)c2)n1` [Example 43, (S)-3-cyclopentyl-N-(1-methyl-1H-pyrazol-3-yl)-2-(4-(trifluoromethyl)-1H-imidazol-1-yl)propanamide], the EC50 under setting [1] lay within 2.9 to 3.5 µM. Under setting [2], the Emax lay in the range of 147 to 166%.

Regarding `O=C(O)c1ccc(NC(=O)[C@H](CC2CCCC2)n2cnc(C(F)(F)F)n2)nc1` [Example 88, (S)-6-(3-cyclopentyl-2-(3-(trifluoromethyl)-1H-1,2,4-triazol-1-yl)propanamido)nicotinic acid], the EC50 under setting [1] stood at 0.7 µM. The Emax under setting [2] is 150%.

In the case of `O=C(Nc1cnc([C@H](O)CO)cn1)[C@H](CC1CCCC1)n1cnc(C(F)(F)F)c1` [Example 50, (S)-3-cyclopentyl-N-(5-((S)-1,2-dihydroxyethyl)pyrazin-2-yl)-2-(4-(trifluoromethyl)-1H-imidazol-1-yl)propanamide], the EC50 under setting [1] lay within 2.6 to 4.2 µM. Under setting [2], the Emax was 121 to 140%.

As for `Cc1ccc(NC(=O)[C@H](CC2CCCC2)n2cnc(S(C)(=O)=O)c2)nc1` [Example 35, (S)-3-cyclopentyl-N-(5-methylpyridin-2-yl)-2-(4-(methylsulfonyl)-1H-imidazol-1-yl)propanamide], the concentration for a half-maximal effect (EC50) under setting [1] turned out to be 0.8 µM. The Emax under setting [2] was 100%.

`Cc1ccc(NC(=O)[C@H](CC2CCCO2)n2cnc(C(F)(F)F)c2)nc1` (mixture of isomers) [Example 82, (2S)—N-(5-methylpyridin-2-yl)-3-(tetrahydrofuran-2-yl)-2-(4-(trifluoromethyl)-1H-imidazol-1-yl)propanamide]: the concentration for a half-maximal effect (EC50) under setting [1] was found to be 5 µM. Besides, the Emax under setting [2] was determined as 115%.

`O=C(Nc1cnccn1)[C@H](CC1CCCC1)n1cnc(C(F)(F)F)n1` [Example 84, (S)-3-cyclopentyl-N-(pyrazin-2-yl)-2-(3-(trifluoromethyl)-1H-1,2,4-triazol-1-yl)propanamide]: the EC50 under setting [1] is 10 µM. The Emax under setting [2] came out at 171%.

As for `O=C(O)c1ccc(NC(=O)[C@H](CC2CCCCC2)n2cnc(C(F)(F)F)c2)nc1` [Example 90, (S)-6-(3-cyclohexyl-2-(4-(trifluoromethyl)-1H-imidazol-1-yl)propanamido)nicotinic acid], the half-maximal effective concentration (EC50) under setting [1] was in the range of 0.2 to 0.3 µM. For the same molecule, under setting [2], the Emax was in the range of 120 to 138%.

Regarding `CC(C)S(=O)(=O)c1cnn([C@@H](CC2CCCC2)C(=O)Nc2ccc3ccccc3n2)c1` [Example 17, (S)-3-cyclopentyl-2-(4-(isopropylsulfonyl)-1H-pyrazol-1-yl)-N-(quinolin-2-yl)propanamide], the EC50 under setting [1] turned out to be 8.2 µM. The Emax under setting [2] was 23%.

As for `Cc1ccc(NC(=O)[C@H](CC2CCCC2)n2cc(S(=O)(=O)C(C)C)cn2)nc1` [Example 1, (S)-3-cyclopentyl-2-(4-(isopropylsulfonyl)-1H-pyrazol-1-yl)-N-(5-methylpyridin-2-yl)propanamide], under setting [1], the EC50 is 0.3 to 0.6 µM. Also, under setting [2], the Emax was in the range of 38 to 50%.

On to `Cc1ccc(NC(=O)[C@H](CC2CCCC2)n2ncc(C(F)(F)F)c2C)nc1` [Example 97, (S)-3-cyclopentyl-2-(5-methyl-4-(trifluoromethyl)-1H-pyrazol-1-yl)-N-(5-methylpyridin-2-yl)propanamide], for which the EC50 under setting [1] was 28 µM. In addition, the Emax under setting [2] is 136%.

Take `CC(C)(C(=O)O)c1ccc(NC(=O)[C@H](CC2CCCC2)n2cnc(C(F)(F)F)c2)nc1` [Example 65, (S)-2-(6-(3-cyclopentyl-2-(4-(trifluoromethyl)-1H-imidazol-1-yl)propanamido)pyridin-3-yl)-2-methylpropanoic acid]: under setting [1], the EC50 came to 17 µM. Moreover, under setting [2], the Emax is 84%.

Consider `Cc1ccc(NC(=O)[C@H](CC2CCCC2)n2cc(C(=O)N(C)C)cn2)nc1` [Example 72, (S)-1-(3-cyclopentyl-1-(5-methylpyridin-2-ylamino)-1-oxopropan-2-yl)-N,N-dimethyl-1H-pyrazole-4-carboxamide], for which, under setting [1], the concentration giving a half-maximal response (EC50) is greater than 100 µM.

In the case of `O=C(Nc1nc2cccnc2s1)[C@H](CC1CCOCC1)n1cnc(C(F)(F)F)c1` [Example 77, (S)-3-(tetrahydro-2H-pyran-4-yl)-N-(thiazolo[5,4-b]pyridin-2-yl)-2-(4-(trifluoromethyl)-1H-imidazol-1-yl)propanamide], the half-maximal effective concentration (EC50) under setting [1] was found to be 18 µM. Also, the Emax under setting [2] turned out to be 139%.

Consider `CC(C)S(=O)(=O)c1cnn([C@@H](CC2CCCC2)C(=O)Nc2ccn(Cc3ccccc3)n2)c1` [Example 19, (S)—N-(1-benzyl-1H-pyrazol-3-yl)-3-cyclopentyl-2-(4-(isopropylsulfonyl)-1H-pyrazol-1-yl)propanamide], for which the concentration giving a half-maximal response (EC50) under setting [1] was in the range of 1.3 to 1.7 µM. Besides, the Emax under setting [2] lay in the range of 33 to 39%.

Turning to `CC(C)S(=O)(=O)c1cnn([C@@H](CC2CCCC2)C(=O)Nc2ncccn2)c1` [Example 5, (S)-3-cyclopentyl-2-(4-(isopropylsulfonyl)-1H-pyrazol-1-yl)-N-(pyrimidin-2-yl)propanamide], the EC50 under setting [1] is greater than 100 µM.

As to `CS(=O)(=O)c1cnn([C@@H](CC2CCCC2)C(=O)Nc2ccc(C(=O)O)cn2)c1` [Example 24, (S)-6-(3-cyclopentyl-2-(4-(methylsulfonyl)-1H-pyrazol-1-yl)propanamido)nicotinic acid], the EC50 under setting [1] came out at 7 µM. In addition, the Emax under setting [2] was determined as 145%.

(Values after patent US8389552B2, “(S)-6-(2-(4-(cyclobutylsulfonyl)-1H-imidazol-1-yl)-3-cyclopentylpropanamido)nicotinic acid useful as a glucokinase activator” (Pfizer Inc., priority 2009, dated 2013).)
